Data published in ChEMBL document CHEMBL4840338, “Cudraflavone C from Artocarpus hirsutus as a Promising Inhibitor of Pathogenic, Multidrug-Resistant S. aureus, Persisters, and Biofilms: A New Insight into a Rational Explanation of Traditional Wisdom” (J Nat Prod, 2021).
Converted amounts (≈) assume the structure as drawn. The source made the active and inactive calls. The rule behind the calls is not given here.

How the values were obtained:
Staphylococcus aureus [1] = assay: microbe, parasite or virus in culture; details: ATCC 29213
Description: Antibacterial activity against Staphylococcus aureus ATCC 29213 assessed as bacterial growth inhibition incubated for 16 to 18 hrs by broth microdilution method

Acinetobacter baumannii [2] = assay: Antibacterial activity against Acinetobacter baumannii BAA 1605 assessed as bacterial growth inhibition incubated for 16 to 18 hrs by broth microdilution method; assay type: functional; details: time 16-18 hrs
Klebsiella pneumoniae = assay: Antibacterial activity against Klebsiella pneumoniae BAA-1705 assessed as bacterial growth inhibition incubated for 16 to 18 hrs by broth microdilution method; assay type: functional; details: time 16-18 hrs
Pseudomonas aeruginosa = assay: Antibacterial activity against Pseudomonas aeruginosa ATCC 27853 assessed as bacterial growth inhibition incubated for 16 to 18 hrs by broth microdilution method; assay type: functional; details: time 16-18 hrs
Escherichia coli [3] = assay: Antibacterial activity against Escherichia coli ATCC 25922 assessed as bacterial growth inhibition incubated for 16 to 18 hrs by broth microdilution method; assay type: functional; details: time 16-18 hrs
Enterococcus = assay: Antibacterial activity against Enterococcus NR 31884 assessed as bacterial growth inhibition incubated for 16 to 18 hrs by broth microdilution method; assay type: functional; details: time 16-18 hrs
Escherichia coli [4] = assay: Antibacterial activity against Escherichia coli ATCC 25922 assessed as bacterial growth inhibition in presence of outermembrane permeabilizer, PMBN incubated for 16 to 18 hrs by broth microdilution method; assay type: functional; details: time 16-18 hrs
Staphylococcus aureus [5] = assay: Bactericidal activity against Staphylococcus aureus ATCC 29213 assessed as reduction in bacterial load at 1X MIC preincubated for 6 hrs followed by subculturing on TSA plate for 18 to 20 hrs by time-kill assay; assay type: functional; details: time 24-26 hrs
Staphylococcus aureus [6] = assay: Antibacterial activity against Staphylococcus aureus ATCC 29213 assessed as time for post-antibiotic effect at 1XMIC incubated for 1 hr followed by drug wash-out and measured every single 1 hr; assay type: functional
Staphylococcus aureus [7] = assay: Antibacterial activity against Staphylococcus aureus ATCC 29213 assessed as time for increase by 1 log10CFU at 10XMIC incubated for 1 hr followed by drug wash-out and measured every single 1 hr; assay type: functional
Staphylococcus aureus [8] = assay: Antibiofilm activity against Staphylococcus aureus ATCC 29213 assessed as reduction in preformed bacterial biofilm at 10XMIC incubated for 24 hrs by crystal violet staining based microtiter plate reader assay; assay type: functional
Staphylococcus aureus [9] = assay: Antibacterial activity against Staphylococcus aureus ATCC 29213 assessed as time for increase by 1 log10CFU at 1XMIC incubated for 1 hr followed by drug wash-out and measured every single 1 hr; assay type: functional
Staphylococcus aureus [10] = assay: Antibacterial activity against Staphylococcus aureus ATCC 29213 assessed as time for post-antibiotic effect at 10XMIC incubated for 1 hr followed by drug wash-out and measured every single 1 hr; assay type: functional
Acinetobacter baumannii [11] = assay: Antibacterial activity against Acinetobacter baumannii BAA-1605 ssessed as bacterial growth inhibition in presence of outermembrane permeabilizer, PMBN incubated for 16 to 18 hrs by broth microdilution method; assay type: functional; details: time 16-18 hrs
Staphylococcus aureus [12] = assay: Antibiofilm activity against Staphylococcus aureus ATCC 29213 assessed as reduction in preformed bacterial biofilm at 1XMIC incubated for 24 hrs by crystal violet staining based microtiter plate reader assay; assay type: functional
Staphylococcus aureus [13] = assay: Antibacterial activity against Staphylococcus aureus ATCC 29213 infected in mouse J774.A1 assessed as reduction in intracellular bacterial burden at 5XMIC incubated for 24 hrs followed by replating on TSA plate for 24 hrs by intracellular killing assay; assay type: functional; details: time 48.0 hrs
Staphylococcus aureus [14] = assay: Antibacterial activity against Staphylococcus aureus ATCC 29213 assessed as reduction in bacterial growth at sub-MIC incubated for 25 days; assay type: functional, organism-based; details: time 25.0 day

Structure (SMILES) | MIC (Staphylococcus aureus [1]) | MIC (Acinetobacter baumannii [2]) | MIC (Klebsiella pneumoniae) | MIC (Pseudomonas aeruginosa) | MIC (Escherichia coli [3]) | MIC (Enterococcus) | further results
CCCCCCCCCC(=O)N[C@@H](Cc1c[nH]c2ccccc12)C(=O)N[C@H](CC(N)=O)C(=O)N[C@@H](CC(=O)O)C(=O)N[C@@H]1C(=O)NCC(=O)N[C@@H](CCCN)C(=O)N[C@@H](CC(=O)O)C(=O)N[C@H](C)C(=O)N[C@@H](CC(=O)O)C(=O)NCC(=O)N[C@H](CO)C(=O)N[C@@H]([C@H](C)CC(=O)O)C(=O)N[C@@H](CC(=O)c2ccccc2N)C(=O)O[C@@H]1C | 1 µg/mL (≈ 0.617 µM) |  |  |  |  |  | 
C[C@@H](O)[C@H]1C(=O)N2C(C(=O)O)=C(S[C@@H]3CN[C@H](C(=O)N(C)C)C3)[C@H](C)[C@H]12 [MEROPENEM] | 1 µg/mL (≈ 2.61 µM) |  |  |  |  |  | 
COc1cc2oc3c(c(=O)c2c(O)c1/C=C/C(C)C)C(C=C(C)C)Oc1cc(O)ccc1-3 (stereo not drawn) | > 64 µg/mL | > 64 µg/mL | > 64 µg/mL | > 64 µg/mL | > 64 µg/mL | > 64 µg/mL | 
CN[C@H](CC(C)C)C(=O)N[C@H]1C(=O)N[C@@H](CC(N)=O)C(=O)N[C@H]2C(=O)N[C@H]3C(=O)N[C@H](C(=O)N[C@H](C(=O)O)c4cc(O)cc(O)c4-c4cc3ccc4O)[C@H](O)c3ccc(c(Cl)c3)Oc3cc2cc(c3O[C@@H]2O[C@H](CO)[C@@H](O)[C@H](O)[C@H]2O[C@H]2C[C@](C)(N)[C@H](O)[C@H](C)O2)Oc2ccc(cc2Cl)[C@H]1O [VANCOMYCIN] |  | 256 µg/mL (≈ 177 µM) |  |  | 512 µg/mL (≈ 353 µM) |  | MIC (Escherichia coli [4]): 128 µg/mL; Activity (Staphylococcus aureus [5]): 1 log10CFU/ml; Time (Staphylococcus aureus [6]): 1 h; Time (Staphylococcus aureus [7]): 3.5 h; inhibition (INH) (Staphylococcus aureus [8]): 7.7%; Time (Staphylococcus aureus [9]): 3 h; Time (Staphylococcus aureus [10]): 1.5 h; MIC (Acinetobacter baumannii [11]): 64 µg/mL; Activity (Staphylococcus aureus [12]): inactive; Activity (Staphylococcus aureus [13]): inactive
CC(C)=CC1Oc2cc(O)ccc2-c2oc3cc4c(c(O)c3c(=O)c21)C=CC(C)(C)O4 (stereo not drawn) [CUDRAFLAVONE A] | > 64 µg/mL | > 64 µg/mL | > 64 µg/mL | > 64 µg/mL | > 64 µg/mL | > 64 µg/mL | 
CN(C)c1ccc(O)c2c1C[C@H]1C[C@H]3[C@H](N(C)C)C(O)=C(C(N)=O)C(=O)[C@@]3(O)C(O)=C1C2=O [MINOCYCLINE] | 0.25 µg/mL (≈ 0.546 µM) |  |  |  |  |  | 
CC(C)(O/N=C(\C(=O)N[C@@H]1C(=O)N2C(C(=O)[O-])=C(C[n+]3ccccc3)CS[C@H]12)c1csc(N)n1)C(=O)O [CEFTAZIDIME] | 16 µg/mL (≈ 29.3 µM) |  |  |  |  |  | 
CO[C@H]1/C=C/O[C@@]2(C)Oc3c(C)c(O)c4c(O)c(c(/C=N/N5CCN(C)CC5)c(O)c4c3C2=O)NC(=O)/C(C)=C\C=C\[C@H](C)[C@H](O)[C@@H](C)[C@@H](O)[C@@H](C)[C@H](OC(C)=O)[C@@H]1C [RIFAMPIN] | 0.0078 µg/mL (≈ 0.00948 µM) | 2 µg/mL (≈ 2.43 µM) |  |  | 8 µg/mL (≈ 9.72 µM) |  | MIC (Escherichia coli [4]): 0.06 µg/mL; MIC (Acinetobacter baumannii [11]): 0.03 µg/mL
Oc1cc(O)cc(/C=C/c2ccc(O)cc2O)c1 [OXYRESVERATROL] | > 64 µg/mL | > 64 µg/mL | > 64 µg/mL | > 64 µg/mL | > 64 µg/mL | > 64 µg/mL | 
C[C@H]1COc2c(N3CCN(C)CC3)c(F)cc3c(=O)c(C(=O)O)cn1c23.C[C@H]1COc2c(N3CCN(C)CC3)c(F)cc3c(=O)c(C(=O)O)cn1c23.O [LEVOFLOXACIN] | 0.125 µg/mL |  | 64 µg/mL | 0.5 µg/mL |  | 0.25 µg/mL | Time (Staphylococcus aureus [6]): 0.5 h; Activity (Staphylococcus aureus [14]): inactive; Time (Staphylococcus aureus [7]): 3 h; Time (Staphylococcus aureus [9]): 2.5 h; Time (Staphylococcus aureus [10]): 1 h
